{"source": "the supplement of paper PMC10307832", "assay_in_all_cases": "relative viability (nuclei count vs DMSO), 5 days (fraction); higher = more cells survive", "key": {"A-427": {"test_system": "A-427", "method_in_brief": "(§1)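 For relative viability, nuclei counts in treated wells were divided by those in vehicle wells. Lung cancer cell lines had been pin-tool dosed in 1536-well plates the day after seeding and cultured for 5 days, then fixed and stained in one step (final 0.05% Triton X-100, 1% formaldehyde, 1 ug/ml Hoechst) and imaged at 4×. Doses were one drug alone or a fixed anchor-drug dose plus five library-drug doses (not always all listed) in √10 steps, and values are duplicate-plate medians.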"}, "COR-L 105": {"test_system": "COR-L 105", "method_in_brief": "as §1"}, "EKVX": {"test_system": "EKVX", "method_in_brief": "as §1"}, "EMC-BAC-2": {"test_system": "EMC-BAC-2", "method_in_brief": "as §1"}, "H3255": {"test_system": "H3255", "method_in_brief": "as §1"}, "HCC-366": {"test_system": "HCC-366", "method_in_brief": "as §1"}, "LK-2": {"test_system": "LK-2", "method_in_brief": "as §1"}, "LOU-NH91": {"test_system": "LOU-NH91", "method_in_brief": "as §1"}, "NCI-H1563": {"test_system": "NCI-H1563", "method_in_brief": "as §1"}, "NCI-H1666": {"test_system": "NCI-H1666", "method_in_brief": "as §1"}, "NCI-H1734": {"test_system": "NCI-H1734", "method_in_brief": "as §1"}, "NCI-H1755": {"test_system": "NCI-H1755", "method_in_brief": "as §1"}, "NCI-H1792": {"test_system": "NCI-H1792", "method_in_brief": "as §1"}, "NCI-H1975": {"test_system": "NCI-H1975", "method_in_brief": "as §1"}, "NCI-H2170": {"test_system": "NCI-H2170", "method_in_brief": "as §1"}, "NCI-H23": {"test_system": "NCI-H23", "method_in_brief": "as §1"}, "NCI-H441": {"test_system": "NCI-H441", "method_in_brief": "as §1"}, "NCI-H520": {"test_system": "NCI-H520", "method_in_brief": "as §1"}, "NCI-H596": {"test_system": "NCI-H596", "method_in_brief": "as §1"}, "PC-3 [JPC-3]": {"test_system": "PC-3 [JPC-3]", "method_in_brief": "as §1"}, "SK-MES-1": {"test_system": "SK-MES-1", "method_in_brief": "as §1"}}}
{"smiles": "O=C(O)c1ccc(-c2c[nH]c3ncc(-c4ccccc4)cc23)cc1C1CCCC1", "note": "+ Cc1nc(NC(=O)N2CCC[C@H]2C(N)=O)sc1-c1ccnc(C(C)(C)C(F)(F)F)c1 [Alpelisib] (partner 2 µM)", "values": [{"measurement": "relative viability", "setting": "A-427; first compound 0.04 µM", "result": 1.03}, {"measurement": "relative viability", "setting": "A-427; first compound 0.1265 µM", "result": 1.13}, {"measurement": "relative viability", "setting": "A-427; first compound 0.4 µM", "result": 1.06}, {"measurement": "relative viability", "setting": "A-427; first compound 1.265 µM", "result": 0.93}, {"measurement": "relative viability", "setting": "COR-L 105; first compound 0.04 µM", "result": 0.893}, {"measurement": "relative viability", "setting": "COR-L 105; first compound 0.1265 µM", "result": 1.02}, {"measurement": "relative viability", "setting": "COR-L 105; first compound 0.4 µM", "result": 1.04}, {"measurement": "relative viability", "setting": "COR-L 105; first compound 1.265 µM", "result": 0.79}, {"measurement": "relative viability", "setting": "EKVX; first compound 0.04 µM", "result": 0.984}, {"measurement": "relative viability", "setting": "EKVX; first compound 0.1265 µM", "result": 0.966}, {"measurement": "relative viability", "setting": "EKVX; first compound 0.4 µM", "result": 0.911}, {"measurement": "relative viability", "setting": "EKVX; first compound 1.265 µM", "result": 0.812}, {"measurement": "relative viability", "setting": "EMC-BAC-2; first compound 0.04 µM", "result": 0.739}, {"measurement": "relative viability", "setting": "EMC-BAC-2; first compound 0.1265 µM", "result": 0.782}, {"measurement": "relative viability", "setting": "EMC-BAC-2; first compound 0.4 µM", "result": 0.719}, {"measurement": "relative viability", "setting": "EMC-BAC-2; first compound 1.265 µM", "result": 0.713}, {"measurement": "relative viability", "setting": "H3255; first compound 0.04 µM", "result": 0.931}, {"measurement": "relative viability", "setting": "H3255; first compound 0.1265 µM", "result": 0.776}, {"measurement": "relative viability", "setting": "H3255; first compound 0.4 µM", "result": 0.715}, {"measurement": "relative viability", "setting": "H3255; first compound 1.265 µM", "result": 0.769}, {"measurement": "relative viability", "setting": "HCC-366; first compound 0.04 µM", "result": 0.443}, {"measurement": "relative viability", "setting": "HCC-366; first compound 0.1265 µM", "result": 0.721}, {"measurement": "relative viability", "setting": "HCC-366; first compound 0.4 µM", "result": 0.653}, {"measurement": "relative viability", "setting": "HCC-366; first compound 1.265 µM", "result": 0.32}, {"measurement": "relative viability", "setting": "LK-2; first compound 0.04 µM", "result": 1.23}, {"measurement": "relative viability", "setting": "LK-2; first compound 0.1265 µM", "result": 0.612}, {"measurement": "relative viability", "setting": "LK-2; first compound 0.4 µM", "result": 1.19}, {"measurement": "relative viability", "setting": "LK-2; first compound 1.265 µM", "result": 1.08}, {"measurement": "relative viability", "setting": "LOU-NH91; first compound 0.04 µM", "result": 0.756}, {"measurement": "relative viability", "setting": "LOU-NH91; first compound 0.1265 µM", "result": 0.803}, {"measurement": "relative viability", "setting": "LOU-NH91; first compound 0.4 µM", "result": 0.68}, {"measurement": "relative viability", "setting": "LOU-NH91; first compound 1.265 µM", "result": 0.608}, {"measurement": "relative viability", "setting": "NCI-H1563; first compound 0.04 µM", "result": 1.01}, {"measurement": "relative viability", "setting": "NCI-H1563; first compound 0.1265 µM", "result": 0.961}, {"measurement": "relative viability", "setting": "NCI-H1563; first compound 0.4 µM", "result": 0.891}, {"measurement": "relative viability", "setting": "NCI-H1563; first compound 1.265 µM", "result": 0.991}, {"measurement": "relative viability", "setting": "NCI-H1666; first compound 0.04 µM", "result": 0.965}, {"measurement": "relative viability", "setting": "NCI-H1666; first compound 0.1265 µM", "result": 0.897}, {"measurement": "relative viability", "setting": "NCI-H1666; first compound 0.4 µM", "result": 0.892}, {"measurement": "relative viability", "setting": "NCI-H1666; first compound 1.265 µM", "result": 0.367}, {"measurement": "relative viability", "setting": "NCI-H1734; first compound 0.04 µM", "result": 0.74}, {"measurement": "relative viability", "setting": "NCI-H1734; first compound 0.1265 µM", "result": 0.683}, {"measurement": "relative viability", "setting": "NCI-H1734; first compound 0.4 µM", "result": 0.598}, {"measurement": "relative viability", "setting": "NCI-H1734; first compound 1.265 µM", "result": 0.664}, {"measurement": "relative viability", "setting": "NCI-H1755; first compound 0.04 µM", "result": 0.952}, {"measurement": "relative viability", "setting": "NCI-H1755; first compound 0.1265 µM", "result": 1.02}, {"measurement": "relative viability", "setting": "NCI-H1755; first compound 0.4 µM", "result": 0.98}, {"measurement": "relative viability", "setting": "NCI-H1755; first compound 1.265 µM", "result": 0.923}, {"measurement": "relative viability", "setting": "NCI-H1792; first compound 0.04 µM", "result": 0.681}, {"measurement": "relative viability", "setting": "NCI-H1792; first compound 0.1265 µM", "result": 0.9}, {"measurement": "relative viability", "setting": "NCI-H1792; first compound 0.4 µM", "result": 0.688}, {"measurement": "relative viability", "setting": "NCI-H1792; first compound 1.265 µM", "result": 0.66}, {"measurement": "relative viability", "setting": "NCI-H1975; first compound 0.04 µM", "result": 0.633}, {"measurement": "relative viability", "setting": "NCI-H1975; first compound 0.1265 µM", "result": 0.817}, {"measurement": "relative viability", "setting": "NCI-H1975; first compound 0.4 µM", "result": 0.652}, {"measurement": "relative viability", "setting": "NCI-H1975; first compound 1.265 µM", "result": 0.578}, {"measurement": "relative viability", "setting": "NCI-H2170; first compound 0.04 µM", "result": 0.812}, {"measurement": "relative viability", "setting": "NCI-H2170; first compound 0.1265 µM", "result": 0.803}, {"measurement": "relative viability", "setting": "NCI-H2170; first compound 0.4 µM", "result": 0.774}, {"measurement": "relative viability", "setting": "NCI-H2170; first compound 1.265 µM", "result": 0.584}, {"measurement": "relative viability", "setting": "NCI-H23; first compound 0.04 µM", "result": 0.61}, {"measurement": "relative viability", "setting": "NCI-H23; first compound 0.1265 µM", "result": 0.852}, {"measurement": "relative viability", "setting": "NCI-H23; first compound 0.4 µM", "result": 0.672}, {"measurement": "relative viability", "setting": "NCI-H23; first compound 1.265 µM", "result": 0.423}, {"measurement": "relative viability", "setting": "NCI-H441; first compound 0.04 µM", "result": 0.707}, {"measurement": "relative viability", "setting": "NCI-H441; first compound 0.1265 µM", "result": 0.692}, {"measurement": "relative viability", "setting": "NCI-H441; first compound 0.4 µM", "result": 0.759}, {"measurement": "relative viability", "setting": "NCI-H441; first compound 1.265 µM", "result": 0.382}, {"measurement": "relative viability", "setting": "NCI-H520; first compound 0.04 µM", "result": 0.836}, {"measurement": "relative viability", "setting": "NCI-H520; first compound 0.1265 µM", "result": 1.09}, {"measurement": "relative viability", "setting": "NCI-H520; first compound 0.4 µM", "result": 0.866}, {"measurement": "relative viability", "setting": "NCI-H520; first compound 1.265 µM", "result": 0.852}, {"measurement": "relative viability", "setting": "NCI-H596; first compound 0.04 µM", "result": 0.492}, {"measurement": "relative viability", "setting": "NCI-H596; first compound 0.1265 µM", "result": 0.427}, {"measurement": "relative viability", "setting": "NCI-H596; first compound 0.4 µM", "result": 0.484}, {"measurement": "relative viability", "setting": "NCI-H596; first compound 1.265 µM", "result": 0.402}, {"measurement": "relative viability", "setting": "PC-3 [JPC-3]; first compound 0.04 µM", "result": 1.05}, {"measurement": "relative viability", "setting": "PC-3 [JPC-3]; first compound 0.1265 µM", "result": 1.03}, {"measurement": "relative viability", "setting": "PC-3 [JPC-3]; first compound 0.4 µM", "result": 1.04}, {"measurement": "relative viability", "setting": "PC-3 [JPC-3]; first compound 1.265 µM", "result": 0.89}, {"measurement": "relative viability", "setting": "SK-MES-1; first compound 0.04 µM", "result": 0.83}, {"measurement": "relative viability", "setting": "SK-MES-1; first compound 0.1265 µM", "result": 1.01}, {"measurement": "relative viability", "setting": "SK-MES-1; first compound 0.4 µM", "result": 0.834}, {"measurement": "relative viability", "setting": "SK-MES-1; first compound 1.265 µM", "result": 0.803}]}
